# Data published in PubChem BioAssay AID651717 (Broad Institute, 2012).
# Tested on: mESC Bmi1-luciferase reporter, firefly/renilla ratio, 24 h
# Assay: compounds raising Bmi1 reporter signal – mouse embryonic stem cells, luciferase, cherry-pick, esBAF inhibitor project, dose response (AID 651717);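 note: luciferase knocked into Bmi1 locus with EF-1a renilla as cell number control; rising ratio signals esBAF inhibition which derepresses Bmi1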
row,Structure (SMILES),AC40 [µM]
1,COc1cc2ccccc2cc1C(=O)Nc1ccccc1C,1.85
2,Cc1ccc(NC(=O)CN(C)S(=O)(=O)c2cccs2)cc1C,2.98
3,O=C(Nc1ccc(F)cc1)c1ccccc1,7.36
4,O=C1NCCC/C1=N/Nc1cc(F)ccc1F,2.6
5,CC(=Nc1ccccc1O)c1sc2ccccc2c1O,3.82
6,c1ccc(CCc2nc(-c3cccnc3)no2)cc1,1.64
7,Cn1c(SCc2c(F)cccc2Cl)nnc1-c1cccs1,11.1
8,O=C(Nc1ccc(F)cc1)c1ccccc1F,5.97
9,COc1ccc(Cl)c(-c2cc(C(=O)Nc3ccc(F)cc3)[nH]n2)c1,2.11
10,Cc1cc(N2CCOCC2)nc2ccc(NC(=O)CCC(=O)N3CCN(c4ccccc4F)CC3)cc12,4.59
11,CO[C@H]1CN(C)C(=O)c2cc(NC(=O)Nc3ccc4c(c3)OCO4)ccc2OC[C@H](C)NC[C@@H]1C,13.2
12,CC(C)Cc1ccc(-c2ccc3nccn3c2)cc1,1.94
13,COc1cc(Cl)ccc1OCc1cc(C(=O)N(C)Cc2cccc3cnccc23)no1,7.79
14,c1ccc(Nc2cccc(Nc3ccccc3)n2)cc1,4.8
15,COc1ccc(Cc2c(-c3ccc(F)cc3)nc3ccc(Br)cn23)c(C)c1,3.51
16,Cc1ccc(CN2CC(C(=O)Nc3cc(C)ccn3)CC2=O)cc1 (centres undefined),1.48
17,Cc1ccc(C(=O)NNC(=O)c2ccc3ccccc3c2)cc1,7.86
18,Cc1cccc(N2C(=O)CC(N(O)c3ccccc3)C2=O)c1 (centres undefined),28.4
19,CNc1cncc(-c2cccc(OC)c2F)n1,1.24
20,COc1ccc(OCc2cc(C(=O)N(Cc3nccn3C)C(C)C)no2)c2ccccc12,3.93
21,OC(c1ccc(F)cc1)c1ncc(-c2ccc3ccccc3c2)[nH]1 (centres undefined),10.9
22,c1ccc(-c2cc3ccccc3[nH]2)cc1,5.17

row,Structure (SMILES),AC40 [µM]
1,C=CCn1c(NCc2ccc(OC)cc2O)nc2ccccc21,5.58
2,Cc1ccc(C(=O)N2CCc3ccccc32)cc1C,3.55
3,CCCCCCCNC(=O)C1(CC2CC(c3ccccc3)=NO2)CCN(C(=O)OC(C)(C)C)CC1 (centres undefined),15.4
4,CC(=O)Nc1ccc2c(c1)Cc1c(F)cccc1-2,0.977
5,COc1cc(C(=O)Oc2ccccc2/C=N/NC(=O)c2ccc(Cl)cc2Cl)cc(OC)c1OC,1.1
6,O=C(Nc1cccc(Cl)c1Cl)c1ccc(-c2ccccc2)cc1,3.54
7,COc1cc2ccccc2cc1C(=O)Nc1ccncc1,5.2
8,Cc1c(C(=O)NCc2cccnc2)sc2nc(-c3ccccc3)cn12,30.8
9,Nc1ccccc1/C=C/c1ccccc1N,2.4
10,COc1ccc(-c2cn3c(C)c(C(=O)NC(C)(C)C)sc3n2)cc1,1.02
11,CC(C)c1ccc(/C=N/NC(=O)CCNC(=O)c2ccccc2)cc1,22.8
12,COC(=O)c1ccc(COC(=O)CNC(=O)c2ccc(OC)cc2)cc1,6.87
13,Cc1ccc(O)c(NC(=O)c2ccc3c(c2)C(=O)N(CC(C)C)C3=O)c1,1.23
14,COC(=O)N1CCCC(c2cc(C(=O)Nc3ccccc3Cl)no2)C1 (centres undefined),3.3
15,CSc1nnc(NC(=O)C23CC4CC(CC(C4)C2)C3)s1,6.47
16,Cc1cccc(Nc2nc(-c3sc(C)nc3C)cs2)c1,2.71
17,Nc1cc2c(cc1Cl)-c1ccccc1C2,6.53
18,CCC(C)NC(=O)c1cc(CC(C)C)on1 (centres undefined),6.83
19,c1ccc2c(c1)Nc1cc3ccccc3cc1O2,4.66
20,CN(C)c1ccc(CSc2ccccc2)cc1,2.77
21,CCN(CC)C(=O)Oc1ccc2c(=O)c(-c3ccc(OC)cc3)coc2c1,3.7
22,C/C(=N\O)c1ccc2c3ccccc3n(C)c2c1,3.32

row,Structure (SMILES),AC40 [µM]
1,CCn1c2ccccc2c2cc(NC(=O)N3CCCCC3)ccc21,1.19
2,CC1CCCN(C(=O)CNC(=O)c2sc3ccccc3c2Cl)C1 (centres undefined),3.96
3,Cn1c(CSc2ccccc2)c(C#N)c2ccccc21,6.77
4,O=C(Cc1ccc(Cl)cc1)c1ccccc1,1.84
5,Clc1ccccc1C=NNc1ccccn1,2.27
6,O=C(Nc1ccc(Nc2ccccc2)cc1)Nc1ccccc1Cl,4.5
7,CCC(=O)c1ccc(N2CCC(C)CC2)c(F)c1,2.04
8,COc1cccc(C(=O)c2cc3cc(Cl)ccc3[nH]2)c1,3.55
9,C=CCn1c(-c2ccc(N)cc2)nc2ccccc21,0.806
10,CCSc1nnc(NC(=O)c2ccc3nc[nH]c3c2)s1,12.7
11,CCN(CC)S(=O)(=O)c1cccc(-c2nc3n(n2)Cc2ccccc2-3)c1,21.7
12,COc1ccc(NC(=O)c2cc3sccc3n2Cc2ccc(F)cc2)cc1OC,13.8
13,CCCC(=O)Nc1ccc2c(c1)C(=O)N(C)C[C@H](OC)[C@@H](C)CN(Cc1ccc(-c3ccccn3)cc1)[C@@H](C)CO2,8.13
14,c1ccc(-c2nnc3oc(-c4cccs4)nn23)cc1,5.88
15,Fc1ccc(Nc2nnc(-c3ccncc3)s2)cc1Cl,4.42
16,CNc1nc(-c2ccc3c(c2)CCN3C(=O)c2ccc(F)cc2)cs1,8.13
17,c1ccc(Oc2cc(-c3ccccc3)ncn2)cc1,2.16
18,Nc1ccc2c(c1)C(=O)c1ccc(N)cc1-2,0.55
19,COc1ccc(OCc2cc(C(=O)NC(C)Cc3cnccn3)no2)c(Cl)c1 (centres undefined),5.42
20,Cc1c(Cl)cccc1NC(=O)c1cc(C2CC2)on1,1.81
